Article PMC5698418 (Nature Communications, 2017)
Starred links: 1 amine or outer side, 2 acyl side, 3 side chain; linkers in the order of their positions; H or OH if unused. Positions of bridges follow the written chain, without caps; N, C: chain ends. Non-standard residues stand in square brackets, D forms with d. Residues, ends and D or L forms follow the SMILES beside them. Chains are numbered I, II in the order given. Actinocin(9to1) = Cc1c2oc3c(C)ccc(C(=O)[*:1])c3nc-2c(C(=O)[*:2])c(N)c1=O; NMeV = CN[C@H](C(=O)O)C(C)C; Sar = CNCC(=O)O

B1: BDNF: recombinant brain-derived neurotrophic factor, 100 ng ml−1 (protein, UniProt P23560 19-247, looked up)
Neurotrophic factor BDNF …: APMKEANIRGQGGLAYPGVRTHGTLESVNGPKAGSRGLTSLADTFEHVIEELLDEDQKVRPNEENNKDADLYTSRVMLSSQVPLEPPLLFLLEEYKNYLDAANMSMRVRRHSDPARRGELSVCDSISEWVTAADKKTAVDMSGGTVTVLEKVPVSKGQLKQYFYETKCNPMGYTKEGCRGIDKRHWNSQCRTTQSYVRALTMDSKKRIGWRFIRIDTSCVCTLTIKRGR

Columns and labels:
primary cortical neurons = conditions: screen at 16.7 µM, excluded from data analysis
Method: All 319 compounds were initially tested at a final concentration of 16.7 µM with three biological replicates.
(§1) Screening of compounds in the chemogenomic library was carried out using DIV13 primary forebrain cortical neurons cultured on poly-L-lysine/laminin-coated 96-well plates (Ibidi USA, Madison, WI). Cells were seeded at a density of 30,000 cells per well and treated with the compound library and BDNF according to the experimental design presented in Fig. 3a. After experimental treatment, cells were processed for Arc and acetyl-H3K9 immunocytochemistry according to the protocol described above. Both antigens (Arc and acetyl-H3K9) were imaged using an IN Cell Analyzer 6000 imaging system and a ×40 objective. […] High-throughput quantification of nuclear Arc immunofluorescence signal was performed in a similar fashion than the low-throughput procedure described above but with the exception that acetyl-H3K9 was used as a nuclear mask to guide the automated quantification of nuclear Arc immunofluorescence signal.

[1] = system: nuclear Arc in primary cortical neurons; assay: Low-throughput nuclear Arc immunofluorescence assay (coverslips, Map2-positive cells); assay type: cell-based, mouse; conditions: for effect on BDNF-induced increase of nuclear Arc: co-treated with BDNF 6 h, k252a 100 nM, ActD 2 ng ml−1, CHX 50 µg ml−1, U0126 10 µM
Source text: Next, using fluorescent immunocytochemistry we assessed to what extent the observed induction of total Arc protein expression measured by western blotting corresponded to an accumulation of Arc in the nucleus of our cultured neurons. We chose to focus on nuclear Arc at this point based on the assumption that it would provide a robust and easily tractable phenotype for testing a large set of compounds with the help of a quantitative, single-cell level, high-content, image-based screen. […] On the other hand, many but not all of the neurons in cultures that were treated with BDNF for 6 h had high levels of Arc in their nuclei (Fig. 2b). […] Finally, to further evaluate the sensitivity of our method to quantify nuclear Arc expression, we tested four pharmacological inhibitors predicted to prevent BDNF-induced Arc expression. […] These experimental results with known mechanism of action compounds critically guided the design and interpretation of the chemogenomic screen performed next.
(§2) Indirect immunofluorescence detection of antigens was carried out using cortical neurons cultured on poly-L-lysine/laminin-coated coverslips in 24-well plates at a density of 0.1 × 10^7 per well. After experimental treatment, cells were washed twice with PBS and fixed for 30 min at room temperature with 4% paraformaldehyde in PBS. After fixation, cells were washed twice with PBS, permeabilized with PBST (PBS + 0.25% Triton X-100) for 20 min, blocked in blocking solution (PBS + 5% normal goat serum) for another 30 min, and finally incubated overnight at 4 °C with the first primary antibody in blocking solution. The next day, coverslips were extensively washed with PBS and incubated for 2 h at room temperature in the appropriate fluorophore-conjugated secondary antibody solution (Alexa 488- or Alexa 594-conjugated secondary antibody (Molecular Probes, Invitrogen) in blocking solution). After washing with PBS, the coverslips were incubated again overnight in primary antibody solution for the second antigen, and the procedure for conjugation of the fluorophore-conjugated secondary antibody was repeated as above. Finally, cell nuclei were counterstained with 4′,6-diamidino-2-phenylindole (DAPI), and coverslips were mounted on glass slides with ProLong Antifade reagent (Invitrogen).
Cells cultured on coverslips from three independent biological replicates were imaged with an IN Cell Analyzer 6000 high-performance laser-based confocal imaging system and a ×40 objective (GE Healthcare Life Sciences, Marlborough, MA). Image preparation, assembly, and analysis were performed with ImageJ (NIH) and Photoshop CS. Change in contrast and evenness of the illumination was applied equally to all images presented in the study. The following procedure was used for low-throughput measurements. First, original raw tiff files were opened in ImageJ, the nucleus of all neurons in the image was located based on Map2 immunostaining, then average pixel intensity corresponding to Arc immunofluorescence was measured for a 30-pixel spot positioned at the center of the nuclear compartment. Second, for each measure of Arc nuclear immunofluorescence pixel intensity, a measure of background pixel intensity from the same image channel was acquired and subsequently subtracted from the Arc nuclear immunofluorescence pixel intensity value. Finally, Arc immunofluorescence signal from untreated samples was used to establish an objective threshold (two standard deviations above the nuclear Arc immunofluorescence signal averaged from a representative population of untreated neurons) and allow comparison of nuclear Arc expression between different experimental conditions.

Arc mRNA = Arc mRNA by real-time RT-PCR in primary cortical neurons; assay type: cell-based, mouse; conditions: 6 h BDNF plus U0126 10 µM or NSC23766 200 µM
Method: After experimental treatment, total RNA was isolated from primary cortical neuron cultures using the TRIzol method (Invitrogen). The concentration of total RNA was measured using a NanoDrop 1000 spectrophotometer (Thermo Fisher Scientific, Rockford, IL) and first-strand complementary DNA (cDNA) was synthesized using the iScript cDNA Synthesis Kit (Bio-Rad, Hercules, CA). Real-time PCRs were performed using gene-specific primers and monitored by quantification of SYBR Green I fluorescence using a Bio-Rad CFX96 Real-Time Detection System. Expression was normalized against Gapdh expression. The relative quantification from at least three biological replicates was performed using the comparative cycle threshold (∆∆CT) method.
Primers for real-time reverse transcription PCR experiments were: Arc, 5′-[…]-3′ (forward) and 5′-[…]-3′ (reverse); Map2, 5′-[…]-3′ (forward) and 5′-[…]-3′ (reverse); GluA1, 5′-[…]-3′ (forward) and 5′-[…]-3′ (reverse); GluA2, 5′-[…]-3′ (forward) and 5′-[…]-3′ (reverse); Gapdh, 5′-[…]-3′ (forward) and 5′-[…]-3′ (reverse).

[2] = system: BDNF-induced nuclear Arc expression in primary cortical neurons; assay: Chemogenomic screen: high-content image-based assay of BDNF-induced nuclear Arc expression (96-well); assay type: cell-based, mouse; conditions: 16.7 µM, BDNF
How it was run: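 Nuclear Arc immunofluorescence is quantified automatically within an acetyl-H3K9-defined nuclear mask from ×40 images. Cultures are DIV13 mouse forebrain cortical neurons seeded at 30,000 per well and exposed to BDNF plus compound at a final 16.7 µM, with triplicate biological replicates.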

acetyl-H3K9 = assay: Acetyl-H3K9 immunofluorescence in neuronal nuclei (multiplexed in screen); assay type: cell-based, mouse
Method: To increase the throughput of our pharmacological screening for modulators of Arc, the above mentioned assay was adapted to cultures of mouse primary cortical neurons in 96-well plates.
as §1

[3] = system: Arc puncta in dendrites of primary cortical neurons; assay: Arc puncta along Map2-labeled dendrites (immunocytochemistry); assay type: cell-based, mouse; conditions: 16.7 µM with BDNF, vs untreated and BDNF alone; for BDNF: BDNF alone vs untreated
Source text: Chemical structure of each compound is presented on top. b Graphs show mean (n = 5) Arc/β-actin ratio (±SEM) for cells treated as in a. […] Tukey’s HSD post hoc test, *p < 0.05; **p < 0.01, ***p < 0.005; ****p < 0.0001. […] Representative captures of DIV14 mouse primary cortical neurons from each experimental condition co-immunostained for Arc (red fluorophore) and Map2 (green fluorophore). White arrowheads show examples of discrete Arc puncta. […] Tukey’s HSD post hoc test, *p < 0.05; ***p < 0.005; ****p < 0.0001
as §2
(§3) Quantification of surface GluA1 puncta was performed according to the following strategy. First, overlapping digital images of GluA1 and Map2 immunostainings were collected using a Zeiss AxioObserver Z1 inverted microscope and ×63 oil immersion objective. Second, thresholding and segmentation based on the Map2 images was used to remove GluA1 signals outside of dendritic processes. Importantly, the same background/foreground cutoff threshold was used for images of all experimental conditions. Third, the length of dendrites for each image set was measured and recorded. Finally, distinct GluA1 foreground objects along dendrites >5 pixels were counted using the particle analysis tool in ImageJ and presented as the average number of GluA1 puncta per µm of dendrite length for each experimental condition.

Arc protein = assay: Western blot of total Arc protein in primary cortical neurons; assay type: cell-based, mouse; conditions: 6 h; BDNF 100 ng ml−1 or 4AP 40 µM + Bic 50 µM
Method: Forebrains of E16.5 C57BL/6 mouse embryos were dissected and then dissociated in trypsin solution for 15 min followed by three washes with phosphate-buffered saline (PBS). Single-cell suspension was achieved by gentle pipet trituration. Neurons were seeded in poly-L-lysine/laminin-coated six-well plates at a density of 2 × 10^6 per well and maintained in neurobasal medium containing B27 supplement (2%, Invitrogen, Grand Island, NY), penicillin (50 units ml^−1, Invitrogen), streptomycin (50 µg ml^−1, Invitrogen), and glutamine (1 mM, Sigma). For experiments involving BDNF (EMD Millipore Corps, Billerica, MA), the stock solution (2 ng µl^−1 in water) was added directly to the culture medium at a final concentration of 100 ng ml^−1 for the indicated period of time.
For western blot analyses, cells were collected by scraping in ice-cold radioimmunoprecipitation assay (RIPA) buffer (50 mM Tris-HCl (pH 8.0), 300 mM NaCl, 0.5% Igepal-630, 0.5% deoxycholic acid, 0.1% SDS, 1 mM EDTA) supplemented with a cocktail of protease inhibitors (Complete Protease Inhibitor without EDTA, Roche Applied Science, Indianapolis, IN) and phosphatase inhibitors (phosphatase inhibitor cocktail A, Santa Cruz Biotechnology). One volume of 2× Laemmli buffer (100 mM Tris-HCl (pH 6.8), 4% SDS, 0.15% bromophenol blue, 20% glycerol, 200 mM β-mercaptoethanol) was added and the extracts were boiled for 5 min. Samples were adjusted to an equal concentration after protein concentrations were determined using the BCA assay (Pierce, Thermo Fisher Scientific). Lysates were separated using SDS–PAGE and transferred to a nitrocellulose membrane. After transfer, the membrane was blocked in TBST (Tris-buffered saline + 0.1% Tween 20) supplemented with 5% nonfat powdered milk and probed with the indicated primary antibody at 4 °C overnight. After washing with TBST, the membrane was incubated with the appropriate secondary antibody and visualized using enhanced chemiluminescence (ECL) reagents according to the manufacturer’s guidelines (Pierce, Thermo Fisher Scientific).
The following procedure was used to quantify western blots. First, equal quantity of protein lysate was analyzed by SDS–PAGE for each biological replicate. Second, the exposure time of the film to the ECL chemiluminescence was the same for each biological replicate. Third, all the exposed films were scanned on a Brother MFC-J485DW scanner in grayscale at a resolution of 300 dpi. Fourth, the look-up table (LUT) of the scanned tiff images was inverted and the intensity of each band was individually measured using the selection tool and the histogram function in Adobe Photoshop CC 2015 software. […]

surface GluA1 = assay: Surface AMPAR (GluA1) imaging along dendrites; assay type: cell-based, mouse; conditions: 16.7 µM, 6 h with BDNF, vs untreated and BDNF alone; for BDNF: BDNF alone vs baseline
Method: Our procedure to label surface AMPARs containing the GluA1 subunit was adapted from two reports[14],[61]. Precisely, DIV14 primary cortical neurons cultured on coverslips were rinsed once with room temperature PBS^MC (PBS containing 0.5 mM CaCl2, 1 mM MgCl2, and 4% sucrose). Live cells were then incubated for 30 min at room temperature with GluA1 primary antibody solution (PBS^MC with antibody against the extracellular N-terminus of GluA1 (EMD Millipore Corp, clone RH95, 5.0 µg ml^−1)). Next, cells were rinsed twice with ice-cold PBS^MC followed by fixation with 4% paraformaldehyde + 4% sucrose solution for 15 min at room temperature. After fixation, neurons were washed with regular PBS and then incubated overnight with Map2 primary antibody solution (PBS with 0.125% Triton X-100, 5% normal goat serum, and anti-Map2 antibody) to label dendrites. Next day, coverslips were washed with PBS, incubated with appropriate secondary antibodies for 1 h at room temperature, and finally mounted on glass slides with ProLong Antifade reagent (Invitrogen).
as §3

Molecule | Reason for exclusion (primary cortical neurons) | effect on BDNF-induced increase of nuclear Arc [1] | also measured
Oc1cc(O)c2c(c1)O[C@H](c1cc(O)c(O)c(O)c1)[C@H](O)C2 [Epigallocatechin, Epigallocatechol, Epigallocatechin] | Cell death - toxicity | – | –
C[C@@H]1C[C@@H]([C@H](O)CC2CC(=O)NC(=O)C2)C(=O)[C@@H](C)C1 [cycloheximide] | – | effectively prevented the increase of nuclear Arc | –
CCCCN(CC)c1nc(C)nc2c1c(C)c(C)n2-c1c(C)cc(C)cc1C.Cl [Antalarmin hydrochloride] | Cell death - toxicity | – | –
COC(=O)[C@@]1(O)C[C@H]2O[C@]1(C)n1c3ccccc3c3c4c(c5c6ccccc6n2c5c31)C(=O)NC4 [K252a] | – | effectively prevented the increase of nuclear Arc | –
COc1cc2c(NC3CCN(C(C)C)CC3)nc(C3CCCCC3)nc2cc1OCCCN1CCCC1 [UNC 0638] | Cell death - toxicity | – | –
Cc1c2oc3c(C)ccc(C(=O)N[C@@H]4C(=O)N[C@H](C(C)C)C(=O)N5CCC[C@H]5C(=O)N(C)CC(=O)N(C)[C@@H](C(C)C)C(=O)O[C@@H]4C)c3nc-2c(C(=O)N[C@@H]2C(=O)N[C@H](C(C)C)C(=O)N3CCC[C@H]3C(=O)N(C)CC(=O)N(C)[C@@H](C(C)C)C(=O)O[C@@H]2C)c(N)c1=O [actinomycin D] (I: T[dV]P[Sar][NMeV] / II: T[dV]P[Sar][NMeV]; ester I:1-I:C, II:1-II:C; linker I:N-II:N via Actinocin(9to1)) | – | effectively prevented the increase of nuclear Arc | –
CC(C)COc1ccc(CNC(=O)N(Cc2ccc(F)cc2)C2CCN(C)CC2)cc1 [Pimavanserin (ACP-103), Pimavanserin] | Cell death - toxicity | – | –
N#CC(=C(/N)Sc1ccccc1N)/C(C#N)=C(/N)Sc1ccccc1N [U0126] | – | effectively prevented the increase of nuclear Arc | effect on BDNF-induced Arc mRNA expression (RT-qPCR) (Arc mRNA): prevented BDNF-induced Arc expression
CCN(CC)CCCC(C)Nc1nc(C)cc(Nc2ccc3nc(C)cc(N)c3c2)n1 (centres unmarked) [NSC23766] | – | – | effect on BDNF-induced Arc mRNA expression (RT-qPCR) (Arc mRNA): prevented BDNF-induced Arc expression but not Rac1 inhibition by NSC23766
C[C@@H](NC(=O)C(=O)c1c[nH]c2ccc([N+](=O)[O-])cc12)c1ccccc1 [TCS 1205] | Cell death - toxicity | – | –
Nc1ccccc1NC(=O)c1ccc(CNC(=O)OCc2cccnc2)cc1 [entinostat, reference compound] | – | – | occurrence of neuronal nuclei with above threshold nuclear Arc immunofluorescence signal, factor in relation to control (DMSO plus BDNF) [2]: ≥ 1.5; impact on acetyl-H3K9 immunofluorescence (Z-score) (acetyl-H3K9; screen, 16.7 µM): strong impact
CNCC[C@H](Oc1cccc2ccccc12)c1cccs1 [Duloxetine] | Cell death - toxicity | – | –
B1 | – | – | number of Arc puncta in dendritic projections [3]: did not observe a significant difference; Arc protein abundance vs untreated control (western blot) (Arc protein): significantly more Arc protein; neurons with Arc-specific nuclear average pixel intensity above threshold (> 2σ of untreated) ([1]; BDNF 100 ng ml−1, 6 h, n = 331 neurons): 17.5%; neuronal nuclei with above threshold average nuclear Arc signal (> 2σ) ([1]; BDNF 24 h, n = 334): 4.2%; acetyl-H3K9 immunofluorescence intensity levels in primary cortical neurons (acetyl-H3K9; BDNF 6 h): unaffected; surface GluA1 puncta per dendrite µm (surface GluA1): did not influence, in one way or the other, the number of GluA1 puncta
